These are literature values, as cited in patent publication US10308663B2, “Inhibitors of PTP4A3 for the treatment of cancer” (University of Virginia Patent Foundation, priority 2015, dated 2019).

The series relates to YOP(H?). To be noted: DiFMUP as a substrate; reported by Hoeger et al.; cited from earlier work.

Take `Nc1c[nH]c(=O)c2cc(-c3ccccc3)sc12` [Thienopyridone (5), 7-amino-2-phenylthieno[3,2-c]pyridin-4(5H)-one]: the IC50 (in general, the concentration at which inhibition is half-maximal) is 61 µM.
